PubChem BioAssay AID1033 (Sanford-Burnham Center for Chemical Genomics, 2008)
The source made the active and inactive calls. No rule for the calls is given here.

Each compound was assayed against Chaperone protein DnaK (Escherichia coli (strain K12)) (UniProt P0A6Y8) (assay: binders of DnaK substrate-binding domain, biophysical, NMR, chaperone (AID 1033)). Settings: Purified DnaK SBD, NMR ligand binding.
Chaperone protein DnaK (Escherichia coli (strain K12)), sequence (P0A6Y8 whole entry, looked up, the tested form may be a part): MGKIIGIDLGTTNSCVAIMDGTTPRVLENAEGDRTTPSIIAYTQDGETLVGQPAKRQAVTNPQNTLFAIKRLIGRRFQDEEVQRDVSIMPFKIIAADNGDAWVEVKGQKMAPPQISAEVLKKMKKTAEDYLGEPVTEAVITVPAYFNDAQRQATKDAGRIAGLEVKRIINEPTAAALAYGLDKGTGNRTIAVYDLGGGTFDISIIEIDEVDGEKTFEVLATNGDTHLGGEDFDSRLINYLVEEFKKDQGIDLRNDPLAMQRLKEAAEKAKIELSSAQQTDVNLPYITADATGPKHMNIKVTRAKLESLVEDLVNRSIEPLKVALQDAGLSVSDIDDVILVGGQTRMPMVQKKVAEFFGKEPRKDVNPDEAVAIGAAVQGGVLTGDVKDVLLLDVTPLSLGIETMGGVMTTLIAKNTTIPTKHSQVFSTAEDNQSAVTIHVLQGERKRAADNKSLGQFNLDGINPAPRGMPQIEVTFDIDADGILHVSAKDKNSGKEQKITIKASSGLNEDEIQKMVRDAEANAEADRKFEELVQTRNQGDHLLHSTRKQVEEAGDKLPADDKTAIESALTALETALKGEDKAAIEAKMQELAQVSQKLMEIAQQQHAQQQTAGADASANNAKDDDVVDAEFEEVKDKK

Question: Which Kd does the source give for `c1ccc(-n2ncc3c(NCc4ccco4)ncnc32)cc1` here?
Answer: > 4 mM (inactive)

Question: `CC(=O)Nc1cc(N2C(=O)C=CC2=O)ccc1Cl` was tested. Which Kd did it give?
Answer: > 4 mM (inactive)

Question: For `NC(=O)CSc1nnc(-c2ccncc2)o1`, which Kd is on record?
Answer: > 4 mM (inactive)

Question: Which Kd does the source give for `CCOC(=O)CSCC(=O)Nc1nccs1` here?
Answer: > 4 mM (inactive)

Question: Which Kd does the source give for `Cn1nnc2cc(C(=O)Nc3cccnc3)ccc21` here?
Answer: > 4 mM (inactive)

Question: How did the Kd turn out when `Nc1nc2c3ccccc3nc(Cc3ccccc3)n2n1` was run?
Answer: > 4 mM (inactive)

Question: With `O=c1[nH]c(CN2CCN(CCO)CC2)nc2ccccc12` as the compound, how does the Kd read?
Answer: > 4 mM (inactive)

Question: With `COc1cc(NC(=O)c2ccccc2)c(C)cc1N` as the compound, how does the Kd read?
Answer: > 4 mM (inactive)

Question: With `CC12CC[C@H](CC1=O)C2(C)C` as the compound, how does the Kd read?
Answer: > 4 mM (inactive)

Question: `NCc1csc(-c2ccccc2)n1` was tested. Which Kd did it give?
Answer: > 4 mM (inactive)

Question: For `Cc1cc(NC(=O)c2ccccc2C(=O)O)no1`, which Kd is on record?
Answer: > 4 mM (inactive)

Question: How did the Kd turn out when `O=C(c1ccco1)N1CCCN(C(=O)c2ccco2)CC1` was run?
Answer: > 4 mM (inactive)

Question: Which Kd does the source give for `Cc1nnc(SCc2ccon2)n1-c1ccccc1` here?
Answer: > 4 mM (inactive)

Question: `COc1ccc(/C=C2/SC(N)=NC2=O)c(OC)c1` was tested. Which Kd did it give?
Answer: > 4 mM (inactive)

Question: How did the Kd turn out when `Cc1c(C(=O)Nc2ccccc2)sc(N)c1C(N)=O` was run?
Answer: > 4 mM (inactive)

Question: Which Kd does the source give for `COc1cc(C(C)=O)cc(OC)c1O` here?
Answer: > 4 mM (inactive)

Question: `Cc1onc(-c2c(Cl)cccc2Cl)c1C(N)=O` was tested. Which Kd did it give?
Answer: > 4 mM (inactive)

Question: Which Kd does the source give for `O=C(O)Cc1csc(-c2ccccc2)n1` here?
Answer: > 4 mM (inactive)

Question: How did the Kd turn out when `CC(=O)c1csc(-c2cc(C)on2)n1` was run?
Answer: > 4 mM (inactive)

Question: For `C[C@H]1[C@H](C)CC[C@]2(C(=O)O)CC[C@]3(C)C(=CCC4[C@@]5(C)C[C@@H](O)[C@H](O)[C@@](C)(CO)C5[C@H](O)C[C@]43C)[C@H]12` (stereo not given in full), which Kd is on record?
Answer: > 4 mM (inactive)

Question: With `COC(=O)[C@@H]1OC(=O)C2OC23[C@@]1(C)CCC1[C@]2(C)C(C[C@H](O)[C@]13C)C(C)(C)[C@H](OC(C)=O)C[C@@H]2OC(C)=O` (stereo not given in full) as the compound, how does the Kd read?
Answer: > 4 mM (inactive)

Question: For `CN1CCC=C(C(=O)O)C1`, which Kd is on record?
Answer: > 4 mM (inactive)

Question: Which Kd does the source give for `Cc1cc(C(=O)NCc2cccnc2)no1` here?
Answer: > 4 mM (inactive)

Question: `Cn1c2ccccc2n2c(=S)[nH]nc12` was tested. Which Kd did it give?
Answer: > 4 mM (inactive)

Question: For `COC(=O)C[C@@H]1C2(C)C(=O)[C@@H](CC3=C4C=C(OC)O[C@@H](c5ccoc5)[C@]4(C)CCC32)[C@H](O)C1(C)C` (stereo not given in full), which Kd is on record?
Answer: > 4 mM (inactive)

Question: How did the Kd turn out when `C=C1C[C@]23C[C@@]1(O)CC[C@H]2[C@@]12C=C[C@H](O)C(C)(C(=O)O1)[C@H]2[C@@H]3C(=O)O` was run?
Answer: > 4 mM (inactive)

Question: `CC(=O)N1CCN(c2ccc(N)cc2)CC1` was tested. Which Kd did it give?
Answer: > 4 mM (inactive)

Question: `O=c1c2ccccc2oc2ccccc12` was tested. Which Kd did it give?
Answer: > 4 mM (inactive)

Question: `CS(C)=C1C(=O)NC(=O)N(c2ccccc2)C1=O` was tested. Which Kd did it give?
Answer: > 4 mM (inactive)

Question: For `O=C(O)CCC(=O)Nc1ccccc1F`, which Kd is on record?
Answer: > 4 mM (inactive)

Question: For `Cc1cc(C(=O)Nc2ccccn2)no1`, which Kd is on record?
Answer: > 4 mM (inactive)

Question: For `C(=N\c1nccs1)/c1cccnc1`, which Kd is on record?
Answer: > 4 mM (inactive)

Question: How did the Kd turn out when `CN1C(=O)/C(=C\c2ccc[nH]2)SC1=S` was run?
Answer: > 4 mM (inactive)

Question: Which Kd does the source give for `O=C(O)CNc1ncnc2nc[nH]c12` here?
Answer: > 4 mM (inactive)

Question: `O=C(O)C1CC(=O)N(Cc2ccc(F)cc2)C1` (stereo not given) was tested. Which Kd did it give?
Answer: > 4 mM (inactive)

Question: With `CN(C(N)=O)C1(C)CCS(=O)(=O)C1` (stereo not given) as the compound, how does the Kd read?
Answer: > 4 mM (inactive)

Question: How did the Kd turn out when `Clc1ccccc1OCCn1ccnc1` was run?
Answer: > 4 mM (inactive)

Question: For `OCc1ccc2c(c1)CCO2`, which Kd is on record?
Answer: > 4 mM (inactive)

Question: Which Kd does the source give for `COc1ccc2[nH]cc(CCNC(C)=O)c2c1` here?
Answer: > 4 mM (inactive)

Question: With `CCN1C(=O)N(CO)C2C1N(C)C(=O)N2C` (stereo not given) as the compound, how does the Kd read?
Answer: > 4 mM (inactive)

Question: How did the Kd turn out when `O=C1NC(=O)/C(=C\c2ccncc2)S1` was run?
Answer: > 4 mM (inactive)

Question: With `c1ccc(C2NCCc3[nH]cnc32)cc1` (stereo not given) as the compound, how does the Kd read?
Answer: > 4 mM (inactive)

Question: Which Kd does the source give for `Cc1c(C(=O)N2CCOCC2)oc2c1C(=O)CC(C)(C)C2` here?
Answer: > 4 mM (inactive)

Question: With `COC(=O)CCSCC(=O)Nc1nnc(C)s1` as the compound, how does the Kd read?
Answer: > 4 mM (inactive)

Question: `COc1cccc(/C=C/C(=O)O)c1C(C)C` was tested. Which Kd did it give?
Answer: > 4 mM (inactive)

Question: With `O=S(=O)(N1CCOCC1)n1nnc2ccccc21` as the compound, how does the Kd read?
Answer: > 4 mM (inactive)

Question: Which Kd does the source give for `CSc1nc2cc(F)c(F)cc2n1C` here?
Answer: > 4 mM (inactive)

Question: With `COc1cc2ccc(=O)oc2c(OC)c1OC` as the compound, how does the Kd read?
Answer: > 4 mM (inactive)

Question: `Cc1ccc(C2NS(=O)(=O)N=C2N)cc1` (stereo not given) was tested. Which Kd did it give?
Answer: > 4 mM (inactive)

Question: How did the Kd turn out when `Nc1nc(NCc2ccco2)nn1-c1ccccc1` was run?
Answer: > 4 mM (inactive)

Question: How did the Kd turn out when `Cc1ccc2nc(SCCC#N)nc(C)c2c1` was run?
Answer: > 4 mM (inactive)

Question: With `CCCc1ncc(C(O)c2cccc3ccccc23)n1C` (stereo not given) as the compound, how does the Kd read?
Answer: > 4 mM (inactive)

Question: With `O=C1CCCN1C(=O)c1ccc(F)cc1` as the compound, how does the Kd read?
Answer: > 4 mM (inactive)

Question: `N[C@@H](C(=O)O)[C@@H](O)[C@H](O)[C@H](O)CO` was tested. Which Kd did it give?
Answer: > 4 mM (inactive)

Question: For `Cc1nnsc1C(=O)Nc1ccccn1`, which Kd is on record?
Answer: > 4 mM (inactive)

Question: For `CCOc1ccc2ccccc2c1C(=O)N1CCOCC1`, which Kd is on record?
Answer: > 4 mM (inactive)

Question: `Cc1nccn1CCC(=O)O` was tested. Which Kd did it give?
Answer: > 4 mM (inactive)

Question: For `CC(C)=CCc1c2c(c3occ(-c4ccc(O)c(O)c4)c(=O)c3c1O)C=CC(C)(C)O2`, which Kd is on record?
Answer: > 4 mM (inactive)

Question: With `Nc1nc(O)c(C2=c3cc(Cl)ccc3=NC2=O)s1` as the compound, how does the Kd read?
Answer: > 4 mM (inactive)

Question: `CSc1ccccc1NC(=O)c1c(C)noc1C` was tested. Which Kd did it give?
Answer: > 4 mM (inactive)

Question: Which Kd does the source give for `Cc1c(N=Cc2ccc[nH]2)c(=O)n(-c2ccccc2)n1C` here?
Answer: > 4 mM (inactive)

Question: How did the Kd turn out when `O=C(Cc1ccccc1)Nc1c[nH]c(=O)[nH]c1=O` was run?
Answer: > 4 mM (inactive)

Question: How did the Kd turn out when `O=C(Nc1nccs1)c1ccc(=O)[nH]n1` was run?
Answer: > 4 mM (inactive)

Question: How did the Kd turn out when `CCCCN1C(=O)C2CC/C(=N/O)CC2C1=O` (stereo not given) was run?
Answer: > 4 mM (inactive)

Question: With `CC1(C)CCC(C)(C)c2cc(C(=O)O)ccc21` as the compound, how does the Kd read?
Answer: > 4 mM (inactive)

Question: How did the Kd turn out when `CC1(C)Oc2ccc3ccc(=O)oc3c2CC1O` (stereo not given) was run?
Answer: > 4 mM (inactive)

Question: `CS(=O)(=O)c1cccc(C(=O)Nc2nccs2)c1` was tested. Which Kd did it give?
Answer: > 4 mM (inactive)

Question: With `COc1cc([C@@H]2c3cc4c(c(O)c3C[C@H]3COC(=O)[C@@H]32)OCO4)cc(OC)c1OC` as the compound, how does the Kd read?
Answer: > 4 mM (inactive)

Question: `O=C1Nc2ccccc2C1(O)Cc1ccncc1` (stereo not given) was tested. Which Kd did it give?
Answer: > 4 mM (inactive)

Question: Which Kd does the source give for `CC(=O)Nc1ccc(NC(=O)C2CC2)cc1` here?
Answer: > 4 mM (inactive)

Question: With `O=C(Nc1nnc(-c2ccccc2Cl)o1)c1ccco1` as the compound, how does the Kd read?
Answer: > 4 mM (inactive)

Question: With `Cc1ccc(S(=O)(=O)CC(=O)N2CCCC2)cc1` as the compound, how does the Kd read?
Answer: > 4 mM (inactive)

Question: With `c1cc2c(cc1[C@H]1OC[C@H]3[C@@H]1CO[C@H]3c1ccc3c(c1)OCO3)OCO2` as the compound, how does the Kd read?
Answer: > 4 mM (inactive)

Question: With `CC(=O)OC1CCC23C(=O)OC45CCC(C6=CC(=O)OC6)C4(C)CCC2C5CCC3(O)C1` (stereo not given) as the compound, how does the Kd read?
Answer: > 4 mM (inactive)

Question: `Cc1cc(Oc2ccccc2)nc(N)n1` was tested. Which Kd did it give?
Answer: > 4 mM (inactive)

Question: For `COc1cccc(-c2csc(NC(C)=O)n2)c1`, which Kd is on record?
Answer: > 4 mM (inactive)

Question: With `COC(=O)CCSCC(=O)Nc1nccs1` as the compound, how does the Kd read?
Answer: > 4 mM (inactive)

Question: How did the Kd turn out when `Cc1n[nH]c(C)c1CC(=O)O` was run?
Answer: > 4 mM (inactive)

Question: `COC(=O)Nc1nc2c(s1)CCCC2` was tested. Which Kd did it give?
Answer: > 4 mM (inactive)

Question: With `NC(=O)c1ccccc1N1CCCCC1` as the compound, how does the Kd read?
Answer: > 4 mM (inactive)

Question: For `Cc1cc(NC(=O)c2cc(C)on2)no1`, which Kd is on record?
Answer: > 4 mM (inactive)

Question: With `Cc1nn(CC(=O)Nc2ccccn2)c(=O)c2ccccc12` as the compound, how does the Kd read?
Answer: > 4 mM (inactive)

Question: With `Cc1cc(=O)oc2c1c(C)nn2CN1CCN(C)CC1` as the compound, how does the Kd read?
Answer: > 4 mM (inactive)

Question: How did the Kd turn out when `Nc1ccc(NS(=O)(=O)c2ccc(N)cc2)cc1` was run?
Answer: > 4 mM (inactive)

Question: Which Kd does the source give for `O=C(O)c1cn(-c2ccccc2)nc1-c1ccncc1` here?
Answer: > 4 mM (inactive)
